Molecules are shown by their SMILES.

The nature of the data set: gradient 5% acetonitrile 3 min, to 50% in 2 min, to 85% in 15 min, held 3 min, 100 µL/min. The conditions noted are these: column: Zorbax Extend-C18 2.1 x 50 mm; eluents: water / acetonitrile, 0.1% formic acid. In short, it runs like this: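 Pure standards were run in mixtures of ~100 molecules by HPLC coupled to a quadrupole time-of-flight mass spectrometer. The column was a Zorbax Extend-C18 (2.1 × 50 mm, 1.8 μm) at 100 μL/min, with water and acetonitrile each containing 0.1% formic acid, in positive and negative ionization mode. Dead and dwell volumes were 40 μL and 900 μL. Retention time was taken from computationally picked adduct peaks, each manually inspected, with data collected over 3 months.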
As to `O=C(c1cc(Cc2n[nH]c(=O)c3ccccc23)ccc1F)N1CCN(C(=O)C2CC2)CC1`, the RP-LC retention time was 717 s.
In the case of `Cc1cc2c(c(=O)n(-c3ccc(F)cc3)c(=O)n2CC(=O)Nc2ccc(F)cc2)n1C` it was 825 s.
To `O=C(NC1CCCC1)N1CCN(c2ncccc2-c2nnc(C3CC3)o2)CC1` belongs 719 s; to `O=C(Nc1ccc2c(c1)OCO2)NC1CCCC(OC(=O)Nc2ccc(F)cc2)C1` (centres undefined), 825 s.
Regarding `Cc1ccc(NC(=O)N2CCc3[nH]cnc3C2c2ccncc2)cc1C` (centres undefined), the RP-LC retention time amounted to 582 s.
In the case of `Cc1cc(C)c(C(=O)N2CCC(CC(=O)NCCCN3CCCC3)CC2)[nH]1` it was 586 s.
As to `Cc1c(C(=O)NC2CCCC2)cnn1-c1cc(-c2nc(C3CC3)no2)ccn1`, the RP-LC retention time came out at 887 s.
To `CC(C)OC(=O)c1cc2ccsc2n1CC(=O)NCc1ccc(F)cc1` belongs 954 s.
To `COCC(=O)NC1CCC12CCN(C(=O)c1cccs1)CC2` (centres undefined) belongs 669 s; to `Clc1cccc(-c2ccc(CNCc3ccc4c(c3)OCO4)o2)c1`, 741 s; to `CCCCc1ccc(NC(=O)CSc2ccc(-c3ccncc3)nn2)cc1`, 718 s.
To `CC(C)N1C(=O)C(CC(=O)Nc2cccc(OC(F)(F)F)c2)=C2CCCCC21` (centres undefined) belongs 1080 s; to `Cc1ccc(NC(=O)Cn2c(C)nc3onc(C)c3c2=O)cc1Cl`, 885 s.
As to `N#Cc1cccc(S(=O)(=O)N2CCc3nc(-c4ccccc4)ncc3C2)c1`, the RP-LC retention time was determined as 987 s.
In the case of `COc1ccc(NC(=O)c2cnc3c(c2)c(=O)n(C)c(=O)n3-c2ccccc2)c(OC)c1` it was 844 s; in that of `Fc1cccc(Cn2cc(-c3noc(-c4cccc(F)c4)n3)nn2)c1`, 1040 s; in that of `COc1ccc(C2(C(=O)N3CCn4ccnc4C3C(C)C)CC2)cc1` (centres undefined), 568 s.
With `CN1c2cc(Cl)ccc2C(=O)NC12CCN(C(=O)Nc1ccccc1)CC2`, the RP-LC retention time amounted to 795 s.
To `Cc1nc2ccc(NC(=O)c3ccc(Cn4ccnc4)cc3)cc2s1` belongs 565 s; to `COc1ccccc1CNS(=O)(=O)c1ccc2c(c1)C(=O)N(C)c1ncccc1O2`, 907 s.
Molecule `CCC1CCCCN1C(=O)c1cnc2nc(C)ccc2c1Nc1ccc(OC)cc1` (centres undefined) gave an RP-LC retention time of 665 s.
To `CC(C)c1ccc(OCC(=O)Nc2cc3c(cc2N2CCOCC2)n(C)c(=O)c(=O)n3C)cc1` belongs 921 s; to `COc1ccc(OC)c(NC(=O)NCc2cccn2Cc2ccccc2)c1`, 927 s; to `CC1=C(c2ccc(F)cc2)S(=O)(=O)N=C1N1CCCN(C(=O)c2ccsc2)CC1`, 802 s.
`C=CCn1c(=O)c2ccccc2n(Cc2nc(-c3cccc(Br)c3)no2)c1=O` returned an RP-LC retention time of 1140 s.
In the case of `Cc1nc(-c2noc(-c3ccc(F)cc3)n2)cn1CC(=O)Nc1ccc2c(c1)CCC2` it was 966 s; in that of `COc1cccc(Cc2nc(-c3cccc(-c4ccn[nH]4)c3)no2)c1`, 932 s.
To `Cc1csc2nc(CSc3nnc(-c4ccccc4F)o3)cc(=O)n12` belongs 799 s; to `O=c1ccc(-c2ccc(F)cc2)nn1CCc1nc(-c2ccc3c(c2)OCO3)no1`, 933 s.
In the case of `Cc1ccc(CNC(=O)NCCCn2c(-c3ccncc3)nc3cccnc32)cc1` it was 651 s; in that of `Cn1cccc1C(=O)N1CCN(c2cc(-c3ccc(Cl)cc3)[nH]n2)CC1`, 832 s.
Molecule `Cc1nc(Cn2cccc2C(=O)NCc2cccc(Br)c2)no1` showed an RP-LC retention time of 852 s.
In the case of `NC(=O)Nc1cc(-c2cccc(F)c2)sc1C(=O)N[C@H]1CCCNC1` it was 650 s; in that of `COc1cccc(S(=O)(=O)NCc2cccnc2-c2ccc(C)cc2)c1`, 695 s; in that of `Cc1cccc(NS(=O)(=O)c2ccc3c(c2)CCCC(=O)N3)c1C`, 813 s.
To `O=C(Cn1cccn1)N1CCCC(c2nnc(-c3ccccc3F)s2)C1` (centres undefined) belongs 690 s.
To `COCCCNc1onc(-c2ccc(Cl)cc2)c1C(=O)OC` belongs 1000 s.
Consider `COc1ccccc1N1CCN(c2ncccc2-c2nc(-c3ccccc3)no2)CC1`, for which the RP-LC retention time amounted to 1140 s.
In the case of `Cc1cc2nn(CC(=O)N3CCC(C)CC3)c(=O)n2c(-c2ccc(F)cc2)n1` it was 816 s; in that of `Cc1ccccc1NC(=O)Cc1csc2nc(-c3cccc(Br)c3)cn12`, 948 s.
To `Cc1cc(C)n2c(Nc3cccc(C(F)(F)F)c3)c(-c3cc(Br)ccc3O)nc2n1` belongs 1060 s; to `COC(=O)c1[nH]c(C)c(C(=O)CN(CC2CCCO2)C(=O)c2ccc(OC)cc2)c1C` (centres undefined), 1030 s; to `Cc1ccc(NC(=O)N2CCCC2c2c(C)noc2C)cc1` (centres undefined), 728 s.
In the case of `Cn1nc(C(C)(C)C)cc1C(=O)N[C@@H](Cc1cccc(Cl)c1)C(=O)NCC#N` it was 946 s.
In the case of `O=C(NC1CCCCC1)C1CCN(S(=O)(=O)c2ccc3[nH]c(=O)sc3c2)CC1`, the RP-LC retention time was determined as 765 s.
In the case of `Cc1ccc(C2Cn3cnc(C(=O)N4CCC(C(=O)NC5CCCC5)CC4)c3CO2)cc1` (centres undefined) it was 749 s; in that of `Cc1ccc(-c2nc3ccc(Cl)cn3c2Nc2ccc3c(c2)OCCO3)cc1`, 779 s; in that of `CC1CO/C(=C2\C(=O)OCC2C)C1` (centres undefined), 812 s.
In the case of `Cc1ccn2cc(C(=O)NCc3ccc(OC(C)C)cc3)nc2c1` it was 713 s; in that of `CCCc1noc(-c2ccnc(-n3cnc(C(=O)N4CCOCC4)c3)c2)n1`, 747 s.
Molecule `Cc1nc2cc(-c3noc(C4CC(=O)N(c5cccc(Cl)c5)C4)n3)ccc2o1` (centres undefined) gave an RP-LC retention time of 958 s.
For `O=C(c1ccc(Cl)s1)N1CCC(n2cnnc2C2CC2)CC1`, the RP-LC retention time stood at 664 s.
In the case of `COc1cc(NC(=O)Nc2c(-c3cccnc3)[nH]c3ccccc23)cc(OC)c1` it was 679 s; in that of `CCN1C=C(C(=O)OCc2ccccc2Cl)C(C)=NS1(=O)=O`, 1010 s; in that of `CCOc1ccc(CNS(=O)(=O)c2cc(C(=O)N3CCCC3)n(C)c2C)cc1`, 771 s.
In the case of `Cc1cc2c(=O)n(CC(=O)Nc3ccc(Br)cc3F)ccc2s1` it was 869 s; in that of `COC(=O)c1ccc2c(=O)n(-c3ccc(OC)c(OC)c3)c(N3CCC(C)CC3)nc2c1`, 1070 s; in that of `O=C(Cn1ccn2nc(-c3ccccc3)c(CO)c2c1=O)Nc1ccccc1F`, 865 s.
To `COc1ccc(S(=O)(=O)CCc2noc(C(=O)NCc3cc(OC)c(OC)c(OC)c3)n2)cc1` belongs 790 s; to `COC(=O)c1cc(S(=O)(=O)N2CCCC2C(=O)NCc2ccccc2Cl)cn1C` (centres undefined), 845 s.
`CS(=O)(=O)N1CCc2cc(C(=O)N3CCC(C(N)=O)CC3)ccc21` showed an RP-LC retention time of 583 s.
In the case of `Cn1c(=O)c(N2CCC(C(=O)NCCCN3CCCC3=O)CC2)nc2ccccc21` it was 645 s.
To `COCCOCC1CCN(C(=O)CNC(=O)c2ccccc2)CC1` belongs 620 s.
To `CC(C)c1noc(-c2ccc(-n3cnc(C(=O)NC(C)c4ccc(F)cc4)c3)nc2)n1` (centres undefined) belongs 1020 s; to `CCOc1ccc(NC(=O)c2[nH]c3cc(C)sc3c2CN2CCOCC2)cc1`, 1160 s.
On to `CCN1C(=O)c2cccnc2Sc2cc(CNC(=O)C3CCN(C(C)=O)CC3)ccc21`, for which the RP-LC retention time was found to be 638 s.
`CCN(CC)c1ccc(NC(=O)CSc2ccc(N3CCCC(C(=O)NC4CC4)C3)nn2)c(C)c1` (centres undefined) showed an RP-LC retention time of 529 s.
In the case of `CC1CCN(C(=O)CSc2nnc(-c3ccc(F)cc3)o2)CC1` it was 958 s.
In the case of `O=C(Cn1nc(S(=O)(=O)c2ccccc2)ccc1=O)N1CCN(c2ccccc2F)CC1` it was 870 s; in that of `CCOc1cccc(CN2Cc3ccccc3OC3(CCN(CCOC)CC3)C2)c1`, 619 s.
To `Cc1ccccc1NC(=O)Cn1cnc2nc(N3CCC(C(=O)NC4CC4)CC3)sc2c1=O` belongs 644 s.
`Cc1ccc(Nc2c(-c3cc(Br)ccc3O)nc3ncccn23)cc1Cl` came in with an RP-LC retention time of 1170 s.
Turning to `CCc1ccc(C2=C(C)C(N3CCCN(C(=O)C4CCCCC4)CC3)=NS2(=O)=O)cc1`, the RP-LC retention time is 976 s.
Molecule `Cc1cc(C(=O)Nc2ccc3c(c2)CCC(=O)N3)no1` displayed an RP-LC retention time of 637 s.
In the case of `COc1ccc(Cl)cc1NC(=O)Cc1csc2nc(-c3ccccc3)cn12` it was 902 s.
`COc1ccc(NC(=O)Cn2nc3c(Oc4ccc(Cl)cc4)nccn3c2=O)cc1` displayed an RP-LC retention time of 832 s.
`CCOC(=O)c1c(S(=O)(=O)N2CCC(C(=O)Nc3ccc(F)cc3F)CC2)c(C)n(CC)c1C` displayed an RP-LC retention time of 895 s.
Consider `COC(=O)C1=CN(c2ccc(N(C)C)cc2)c2ccc(F)cc2S1(=O)=O`, for which the RP-LC retention time is 730 s.
To `O=C(Cc1ccc(F)cc1)N1CCN(C(=O)c2nnn3c2COC(c2ccccc2)C3)CC1` (centres undefined) belongs 864 s.

The values above are taken from the METLIN SMRT retention time set (Domingo-Almenara et al. 2019).
